Calls of active or inactive are those of the source.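 Rule for the calls: active = AC50 no more than tenfold above the top dose tested, or full inhibition at every dose with a flat fit (cut at about 19 µM in these data); inconclusive = flat curve fit with inhibition between 30% and 70%, or poor fit; inactive = AC50 more than tenfold above the top dose tested.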

This test has as its system HMLE_sh_eGFP viability, CellTiter-Glo luminescence, 72 h. Put plainly: cytotoxicity in HMLE control line with eGFP shRNA, dose response, counter-screen for HMLE_sh_ECad selective toxicity project, cell-based, HMLE_sh_eGFP, luminescence (AID 463074;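 note: potency for loss of viability as luminescence drops below DMSO wells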). (A counterscreen serves to expose hits that act by an unwanted route or on another target.)
As to `O=C(CN(c1cccc(C(F)(F)F)c1)S(=O)(=O)c1ccc(Cl)c([N+](=O)[O-])c1)NCc1ccc(F)cc1`, the concentration at half-maximal activity (AC50) (usually the concentration giving half of the maximal activity seen) is 3.26 µM.

On to `CSc1ccc2c(c1)C(N1CCN(C)CC1)Cc1ccccc1S2` (centres undefined), for which the AC50 was 15.1 µM.

For the molecule `CN1CCC(OC(=O)c2cccc(Cl)c2)CC1`, the AC50 is 3.33 µM.

With `CC1CCCCN1c1cc(C#N)c(C#N)cc1[N+](=O)[O-]` (centres undefined), the AC50 was 1.77 µM.

For the molecule `CC(C)COC(=O)c1cccc2c1-c1ccccc1/C2=N\O`, the AC50 is 5.27 µM.

Consider `Cn1nc(-c2ccccc2F)c2cc(C(=O)Nc3ccc4c(c3)OCCO4)sc21`, for which the AC50 is > 19.5 µM (inactive).

In the case of `O=C1NC[C@@H](Cc2cccc3ccccc23)N(CCCCC2CCCCC2)C1=O`, the AC50 was 7.05 µM.

As to `CC(NC(=O)c1ccc([N+](=O)[O-])o1)C12CC3CC(CC(C3)C1)C2` (centres undefined), the AC50 was 9.54 µM.

For `Cc1c(-c2cccc(Cl)c2)nc2ccccc2c1C(=O)OC/C(O)=C(\C#N)c1nc2ccccc2[nH]1`, the AC50 was 3.12 µM.

As to `CCN(Cc1ccccc1)c1ccc(/C=N/N=C(N)N)cc1`, the AC50 was 3.16 µM.

With `COc1ccc2cc(C(=O)N/N=C/c3sc4ccccc4c3O)ccc2c1`, the AC50 was 1.8 µM.

As for `Cn1cccc1-c1nc2ccccc2n1Cc1ccccc1`, the AC50 is 13.6 µM.

For `C=CCn1c(CNc2ccc(C)cc2)nnc1SCC(=O)N/N=C/c1ccc(O)cc1O`, the AC50 is 2.97 µM.

As to `Cc1ccc(/C=C/C(=O)NCCc2ccccc2)o1`, the AC50 is > 19.5 µM (inactive).

Take `COc1cc(NC2CCCCC2O)c2nc(-c3ccc(Cl)cc3)ccc2c1` (centres undefined): the AC50 was 5.65 µM.

Take `CC(C)C[C@@H](CO)N(Cc1ccccc1)S(=O)(=O)N(Cc1ccccc1)[C@H](CO)CC(C)C`: the AC50 was 7.24 µM.

In the case of `CC(C)N1CCN(Cc2ccc(OCc3ccccc3)cc2)CC1CCO` (centres undefined), the half-maximal activity concentration (AC50) was 11.5 µM.

With `CCCCCc1cc(=O)oc2c(C(CCN3CCCC(C)C3)c3cc(OC)c(OC)c(OC)c3)c(OC)cc(OC)c12` (centres undefined), the AC50 was 7.18 µM.

For the molecule `Cc1ccc(C)c(N2CCN(C(=O)c3ccc4c(c3)c(C)c(C)n4C)CC2)c1`, the AC50 is 9.07 µM.

`O=C(Nc1nc(-c2cc(Cl)sc2Cl)cs1)c1cccs1`: the AC50 was 2.42 µM.

As for `O=c1c(Cl)c(NCc2ccc(F)cc2)cnn1C12CC3CC(CC(C3)C1)C2`, the AC50 is 2.15 µM.

In the case of `Cc1cccc2sc(NC(=O)C3c4ccccc4Oc4ccccc43)nc12`, the AC50 was 5.71 µM.

Turning to `Cc1ccc(C(=O)CSC2=C(C#N)C(c3ccco3)C3=C(CC(C)(C)CC3=O)N2)cc1` (centres undefined), the AC50 was 3.33 µM.

With `O=C(Nc1ccc(OC(F)F)c(Cl)c1)Nc1ccc2c(c1)OCO2`, the AC50 was 3.14 µM.

For the molecule `O=C(Nc1cccc(-c2csc(Nc3ccc(Cl)cc3)n2)c1)c1cc([N+](=O)[O-])cc(C(F)(F)F)c1`, the AC50 was 6.88 µM.

With `O=C(/C=C/c1ccc(Cl)c([N+](=O)[O-])c1)c1ccc(O)cc1`, the AC50 is 3.72 µM.

Consider `Cc1cccc(C)c1NS(=O)(=O)c1ccc(NC(=O)c2ccc(Cl)c([N+](=O)[O-])c2)cc1`, for which the AC50 is 3.66 µM.

With `Cc1cc(C)nc(SCc2ccc(C(=O)N/N=C/c3cccc(O)c3O)cc2)n1`, the AC50 is 3.71 µM.

Regarding `COc1ccc2c(c1)C(=O)[C@H](O)[C@@H](c1ccc(OC)c(Br)c1)O2`, the AC50 is 3.61 µM.

As to `CC1(c2ccc(O)cc2)NC(=O)N(c2ccccc2)N1` (centres undefined), the AC50 is 8.69 µM.

Regarding `Cc1cc(/C=N/n2c(COc3ccccc3)nc3ccccc3c2=O)c(O)c([N+](=O)[O-])c1`, the AC50 is > 10 µM (inactive).

Regarding `CCCCCCSc1ccc(-c2nc3cnccn3c2NCCCC)cc1`, the AC50 is 4.07 µM.

Consider `CCc1c(C)sc(NC(=O)/C=C/c2ccc3c(c2)OCO3)c1C(=O)OC`, for which the AC50 was 0.776 µM.

Consider `COc1cc(C(=O)OC2CC3CCC2(C)C3(C)C)ccc1OC(C)=O` (centres undefined), for which the AC50 is 6.46 µM.

Consider `Cc1c(Cl)c([N+](=O)[O-])nn1Cc1ccc(C(=O)N/N=C\c2cc(Cl)ccc2O)o1`, for which the AC50 is 4.54 µM.

Turning to `Cc1cc(Nc2ccccc2)nc(-c2ccccc2O)n1`, the AC50 is 7.92 µM.

On to `CN(C)CCNc1nc2sc3c(c2c(=O)n1CCc1ccccc1)CCCCC3`, for which the AC50 is 7.1 µM.

Turning to `CCCCn1c(=O)c(C(=O)NCc2ccc(Cl)cc2)c(O)c2ccccc21`, the AC50 is 7.8 µM.

Take `O=C(NNc1ccccc1)C(=O)N1CCCCC1`: the AC50 is 3.16 µM.

Take `Cc1cccc(NC(=S)N/N=C/c2c[nH]c3ccccc23)c1`: the AC50 was 1.63 µM.

In the case of `COc1cc(OC)cc(-c2nnc(SCC(=O)N(Cc3ccccc3)C(C)(C)C)o2)c1`, the AC50 is 2.74 µM.

For the molecule `Oc1ccc(C2=NN(c3ccccc3)C(c3ccc(F)cc3)C2)cc1` (centres undefined), the AC50 was 3.45 µM.

Take `O=C(Nc1ccccc1)Nc1ccc(O)c2ccccc12`: the concentration at half-maximal activity (AC50) is 3.94 µM.

As for `COc1ccc(Cc2nnc(N/N=C/c3ccc(O)cc3O)[nH]c2=O)cc1OC`, the concentration at half-maximal activity (AC50) was 8.14 µM.

Consider `O=[N+]([O-])c1ccc(/C=N/n2cnc3ccccc32)s1`, for which the AC50 is 6.83 µM.

In the case of `CCCc1ccc(-c2cc(NC(=O)CSc3n[nH]c(N)n3)n(-c3ccccc3)n2)cc1`, the AC50 was 6.1 µM.

On to `C=CCc1cccc(CNc2nc3ccccc3n2CCC)c1O`, for which the AC50 was 13.5 µM.

As for `COc1ccc(-c2sc3ccc(N4CCOCC4)cc3c2C#CC(C)(C)O)cc1`, the AC50 is 1.3 µM.

`O=C(Cc1ccc(Cl)cc1)Nc1ccc2c(c1)C(=O)NC2=O`: the AC50 is > 19.5 µM (inactive).

As for `O=C(Nc1ccc(Cl)c(C(F)(F)F)c1)NC1CC2CCCC(C1)N2Cc1ccccc1` (centres undefined), the AC50 is 6.8 µM.

With `COc1ccc(NC(=O)c2cccc(-c3ccc(O)cc3)c2)cn1`, the AC50 was 7 µM.

On to `COc1cccc(-c2sc3ccc(OC)cc3c2-c2ccc(OCCN(C)C)cc2)c1`, for which the AC50 is 3.59 µM.

Regarding `CC(C)(C)c1ccc(/C=C/C(=O)c2ccc(NC3=NCCCS3)cc2)cc1`, the AC50 is 6.11 µM.

Turning to `Cc1cc(C)cc(NC(=O)Nc2ccc(-n3ccc(C(F)(F)F)n3)cc2)c1`, the AC50 was 4.95 µM.

Turning to `CC(C)C[C@H]1CN=C(Nc2ccccc2)N1CC1CCC(C(C)(C)C)CC1` (some centres undefined), the AC50 was 5.34 µM.

Regarding `CC(=O)Nc1ccc(SCC(=O)c2cc(C)n(Cc3cccs3)c2C)cc1`, the AC50 is 4.66 µM.

Turning to `O=C(Nc1ccn(Cc2ccccc2F)n1)c1ccc(COc2ccc(Cl)cc2Cl)o1`, the AC50 was > 19.5 µM (inactive).

As to `CCOC(=O)C1=C(N)Oc2cc(O)ccc2C1c1cccc(Cl)c1` (centres undefined), the AC50 is 4.06 µM.

Consider `CCc1ccc(-c2cc3c(=O)n(CC(=O)NCCN4CCCCC4C)nc(C)n3n2)cc1` (centres undefined), for which the AC50 was 5.23 µM.

In the case of `CCCCn1c(-c2cccc(C)c2)nc2cc3[nH]c(=O)c(C(C)C)nc3cc21`, the half-maximal activity concentration (AC50) was 4.64 µM.

With `CCOC(=O)CS(=O)(=O)c1nc(-c2ccccc2)cc(C(F)(F)F)n1`, the AC50 is 3.25 µM.

On to `Cc1ccccc1C(=O)N1CCN(c2ccc(NC(=O)c3ccc([N+](=O)[O-])o3)cc2)CC1`, for which the AC50 was 4.37 µM.

As for `Nc1ccccc1N=Cc1ccc(-c2cccc(Cl)c2)o1`, the AC50 is 4.22 µM.

On to `O=Cc1cc2ccccc2nc1SCc1ccc(Cl)cc1`, for which the AC50 is 5.69 µM.

As to `Oc1ccc(/C=N/Nc2ncc(Br)cn2)c(O)c1`, the AC50 was 5.8 µM.

On to `CNC(CC(=O)c1ccc([N+](=O)[O-])cc1)C(Cl)(Cl)Cl` (centres undefined), for which the AC50 was 3.96 µM.

In the case of `COc1cc(Nc2nc(-c3ccccc3)c3cc(C)ccc3n2)cc(OC)c1OC`, the AC50 is 5.17 µM.

`COC(=O)C1=C(C)N(Cc2ccccc2)C(=NCc2ccccc2)N[C@H]1c1cccc(C(F)(F)F)c1`: the half-maximal activity concentration (AC50) was 3.68 µM.

With `Cc1cc(=O)[nH]c(N/N=C/c2ccc(-c3ccc(F)cc3)o2)n1`, the half-maximal activity concentration (AC50) was 18.1 µM.

As to `C=CCCC(=O)Nc1nc(C)c(-c2csc(Nc3ccc(Cl)cc3)n2)s1`, the AC50 is 3.83 µM.

For the molecule `C/C(NC(=O)c1cccc(F)c1)=C1/C(=O)C[C@@H]2[C@H]1C2(C)C`, the AC50 is 2.13 µM.

With `CC(=O)c1ccc(NC(=O)c2ccc([N+](=O)[O-])o2)cc1`, the AC50 is 7.8 µM.

For the molecule `CCCCCc1cc(=O)oc2c(C(CCN(CC)CC)c3cc(OC)c(OC)c(OC)c3)c(OC)cc(OC)c12` (centres undefined), the concentration at half-maximal activity (AC50) is 14.3 µM.

On to `Cc1ccc(C(=O)/C=C/c2cc(Br)cc(Br)c2O)o1`, for which the AC50 is 3.57 µM.

As for `C=CCn1c(=O)c(C(=O)NCCc2ccccc2)c(O)c2ccccc21`, the AC50 was 5.77 µM.

Consider `CCOc1ccc(N/C(N)=N/c2nc(CSc3nnc(C)s3)cc(=O)[nH]2)cc1`, for which the AC50 is 0.609 µM.

For `CC(C)c1ccc(/C=N/NC(=O)c2ccccn2)cc1`, the AC50 was > 19.5 µM (inactive).

In the case of `O=C(/C=C/c1ccco1)NCC1OCCc2ccccc21` (centres undefined), the AC50 is > 19.5 µM (inactive).

As for `C/C(=N\Nc1ccccc1)c1c(O)n(C)c(=O)n(C)c1=O`, the AC50 was 4.05 µM.

On to `CCc1ccc2nc(SCC(=O)Nc3ccccc3N3CCOCC3)c(C#N)cc2c1`, for which the concentration at half-maximal activity (AC50) is 2.73 µM.

In the case of `Cc1cc(C)c(C(CC(=O)c2cccs2)C(C#N)C#N)c(C)c1` (centres undefined), the half-maximal activity concentration (AC50) is 5.9 µM.

In the case of `CNc1ccccc1C(C)(C)c1cc(-c2cc(C)cc(C)c2)no1`, the AC50 was 18.4 µM.

For `Cc1cccc(-c2nc(C#N)c(NC3CCCCC3)o2)c1`, the AC50 is 19.4 µM.

With `C=CCn1c(O)c(C2=c3ccccc3=NC2=O)c2ccccc21`, the AC50 was 7.4 µM.

On to `COc1ccc2sc(-c3ccccc3OC)c(-c3ccc(OCCN4CCCC4)cc3)c2c1`, for which the AC50 is 3.74 µM.

Consider `Cc1nn(-c2ccccc2)c(C)c1/C=N/NC(=O)c1cc(-c2ccc(Br)s2)[nH]n1`, for which the AC50 was 4.72 µM.

Turning to `CC(=O)Oc1ccc2c(=O)c(-c3nc4ccccc4s3)coc2c1`, the AC50 was 9.34 µM.

Turning to `O=C(Nc1cc(C(F)(F)F)cc(C(F)(F)F)c1)Nc1cnn(-c2ccc([N+](=O)[O-])cc2)c1C(F)(F)F`, the concentration at half-maximal activity (AC50) is 0.848 µM.

As for `O=Cc1cc2ccccc2nc1SCc1ccc(Cl)c(Cl)c1`, the AC50 is 6.37 µM.

For `Cc1cc(N)n(-c2ccc(S(N)(=O)=O)cc2[N+](=O)[O-])n1`, the AC50 was > 19.5 µM (inactive).

In the case of `COc1cccc(/C=C/c2nc(C#N)c(NCC(C)C)o2)c1`, the AC50 is 5.06 µM.

Take `Cc1cccc(N(C)C(=O)c2cc3c(=O)[nH]c4ccc(C)cc4c3s2)c1`: the AC50 is 2.52 µM.

For the molecule `C=CCOc1cccc(/C=C2\C(=O)N(Cc3ccc(C)cc3)C(C)=C2C(=O)OC)c1`, the concentration at half-maximal activity (AC50) is 7.24 µM.

For the molecule `COc1c(Cl)cc(Cl)cc1/C=C/C(=O)c1ccc(NC(=O)c2cccs2)cc1`, the AC50 is 1.31 µM.

The values are drawn from PubChem BioAssay AID463074 (Broad Institute, 2010).
